Laboratory results from the supplement of paper PMC9663587.

Experiments:
[1] = compound: Cc1nc(-c2cn3c(n2)-c2ccc(-c4cnn(C(C)(C)C(N)=O)c4)cc2OCC3)n(C(C)C)n1 [Taselisib/GDC0032]
[2] = compound: CN(C)C/C=C/C(=O)Nc1ccc(O[C@@H]2CCC[C@@H](Nc3ncc(Cl)c(-c4c[nH]c5ccccc45)n3)C2)cc1 [BSJ-01-175]
[3] = compound: CC(=O)O[C@H]1C(=O)[C@@]2(C)[C@H]([C@H](OC(=O)c3ccccc3)[C@]3(O)C[C@H](OC(=O)[C@H](O)[C@@H](NC(=O)c4ccccc4)c4ccccc4)C(C)=C1C3(C)C)[C@]1(OC(C)=O)CO[C@@H]1C[C@@H]2O [Paclitaxel]
[4] = compound: O=C(c1cc(Cc2n[nH]c(=O)c3ccccc23)ccc1F)N1CCN(C(=O)C2CC2)CC1 [Olaparib/AZD2281]
[5] = compound: CN(C)CC[C@H](CSc1ccccc1)Nc1ccc(S(=O)(=O)NC(=O)c2ccc(N3CCN(Cc4ccccc4-c4ccc(Cl)cc4)CC3)cc2)cc1[N+](=O)[O-] [ABT-737]
[6] = compound: CC(C)NC[C@@H](C(=O)N1CCN(c2ncnc3c2[C@H](C)C[C@H]3O)CC1)c1ccc(Cl)cc1 [Ipatasertib/GDC0068]
[7] = compound: T1, CN1CC[C@H](c2c(O)cc(O)c3c(=O)cc(-c4ccccc4Cl)oc23)[C@H](O)C1 [Flavopiridol]
[8] = compound: COc1cccc2c1C(=O)c1c(O)c3c(c(O)c1C2=O)C[C@@](O)(C(=O)CO)C[C@@H]3O[C@H]1C[C@H](N)[C@H](O)[C@H](C)O1 [Doxorubicin]
[9] = compound: CCNC(=O)c1noc(-c2cc(C(C)C)c(O)cc2O)c1-c1ccc(CN2CCOCC2)cc1 [Luminespib/NVP-AUY922]
[10] = compound: CN(C)C(=O)c1cc2cnc(Nc3ccc(N4CCNCC4)cn3)nc2n1C1CCCC1 [LEE011/Ribociclib]; assay: GR value, 72 h; higher = faster growth (1 = untreated, <0 = killing);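 also: breast cancer and non-malignant breast epithelial lines, nine half-log doses, viable cells counted by Hoechst and LIVE/DEAD dye imaging versus time-zero plates and DMSO controls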
[11] = compound: CCc1cnn2c(NCc3ccc[n+]([O-])c3)cc(N3CCCC[C@H]3CCO)nc12; assay: as above
[12] = compound: CC(=O)c1c(C)c2cnc(Nc3ccc(N4CCNCC4)cn3)nc2n(C2CCCC2)c1=O; assay: as above
[13] = compound: CN(C)C/C=C/C(=O)Nc1ccc(C(=O)N2CCC[C@@H](Nc3ncc(Cl)c(-c4c[nH]c5ccccc45)n3)C2)cc1 [THZ531]; assay: as above
[14] = compound: T1, Flavopiridol; assay: as above
[15] = compound: C=CC(=O)Nc1ccc(C(=O)Nc2[nH]nc3c2CN(C(=O)N[C@H](CN(C)C)c2ccccc2)C3(C)C)cc1 [YKL-5-124]; assay: as above
[16] = compound: CC(=O)c1c(C)c2cnc(Nc3ccc(N4CCN(CCOCCOCCOCCNC(=O)COc5cccc6c5C(=O)N(C5CCC(=O)NC5=O)C6=O)CC4)cn3)nc2n(C2CCCC2)c1=O [BSJ-03-123]; assay: as above
[17] = compound: CCN1CCN(Cc2ccc(Nc3ncc(F)c(-c4cc(F)c5nc(C)n(C(C)C)c5c4)n3)nc2)CC1; assay: as above
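For GR50, 72 h in this document: breast cancer and non-malignant breast epithelial cell lines, Deep Dye Drop or Dye Drop imaging, nine half-log doses, GR normalized to time-zero plates and DMSO-only controls.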

PDXHCI002
GR50, 72 h [1]: 0.6 µM
GR50, 72 h [2]: 0.00607 µM
GR50, 72 h [3]: 0.00249 µM
GR50, 72 h [4]: 3.93 µM
GR50, 72 h [5]: 5.62 µM
GR50, 72 h [6]: > 10 µM
GR50, 72 h [7]: 0.114 µM
GR50, 72 h [8]: 0.00405 µM
GR50, 72 h [9]: 0.00439 µM
GR value ([10]; 0.001 µM): 1.04 GR
GR value ([10]; 0.003162 µM): 1 GR
GR value ([10]; 0.01 µM): 0.903 GR
GR value ([10]; 0.03162 µM): 0.925 GR
GR value ([10]; 0.1 µM): 0.882 GR
GR value ([10]; 0.3162 µM): 0.862 GR
GR value ([10]; 1 µM): 0.828 GR
GR value ([10]; 3.162 µM): 0.766 GR
GR value ([10]; 10 µM): 0.51 GR
GR value ([11]; 0.0001 µM): 1.11 GR
GR value ([11]; 0.0003162 µM): 1.1 GR
GR value ([11]; 0.001 µM): 1.11 GR
GR value ([11]; 0.003162 µM): 1.05 GR
GR value ([11]; 0.01 µM): 0.744 GR
GR value ([11]; 0.03162 µM): -0.331 GR
GR value ([11]; 0.1 µM): -0.387 GR
GR value ([11]; 0.3162 µM): -0.343 GR
GR value ([11]; 1 µM): -0.365 GR
GR value ([12]; 0.0003162 µM): 1.09 GR
GR value ([12]; 0.001 µM): 1.09 GR
GR value ([12]; 0.003162 µM): 1.02 GR
GR value ([12]; 0.01 µM): 0.946 GR
GR value ([12]; 0.03162 µM): 0.723 GR
GR value ([12]; 0.1 µM): 0.552 GR
GR value ([12]; 0.3162 µM): 0.427 GR
GR value ([12]; 1 µM): 0.374 GR
GR value ([12]; 3.162 µM): 0.274 GR
GR value ([13]; 0.0001 µM): 1.1 GR
GR value ([13]; 0.0003162 µM): 1.06 GR
GR value ([13]; 0.001 µM): 0.966 GR
GR value ([13]; 0.003162 µM): 1.06 GR
GR value ([13]; 0.01 µM): 0.958 GR
GR value ([13]; 0.03162 µM): 0.782 GR
GR value ([13]; 0.1 µM): 0.0491 GR
GR value ([13]; 0.3162 µM): -0.122 GR
GR value ([13]; 1 µM): -0.198 GR
GR value ([14]; 0.0001 µM): 1.02 GR
GR value ([14]; 0.0003162 µM): 0.997 GR
GR value ([14]; 0.001 µM): 0.973 GR
GR value ([14]; 0.003162 µM): 0.997 GR
GR value ([14]; 0.01 µM): 0.999 GR
GR value ([14]; 0.03162 µM): 0.817 GR
GR value ([14]; 0.1 µM): 0.63 GR
GR value ([14]; 0.3162 µM): -0.0265 GR
GR value ([14]; 1 µM): -0.156 GR
GR value ([15]; 0.001 µM): 0.288 GR
GR value ([15]; 0.003162 µM): 0.306 GR
GR value ([15]; 0.01 µM): 0.168 GR
GR value ([15]; 0.03162 µM): 0.196 GR
GR value ([15]; 0.1 µM): 0.158 GR
GR value ([15]; 0.3162 µM): 0.0899 GR
GR value ([15]; 1 µM): 0.0177 GR
GR value ([15]; 3.162 µM): 0.0442 GR
GR value ([15]; 10 µM): -0.129 GR
GR value ([16]; 0.001 µM): 1.08 GR
GR value ([16]; 0.003162 µM): 1.03 GR
GR value ([16]; 0.01 µM): 0.992 GR
GR value ([16]; 0.03162 µM): 0.883 GR
GR value ([16]; 0.1 µM): 0.812 GR
GR value ([16]; 0.3162 µM): 0.771 GR
GR value ([16]; 1 µM): 0.565 GR
GR value ([16]; 3.162 µM): 0.472 GR
GR value ([16]; 10 µM): -0.0835 GR
GR value ([17]; 0.001 µM): 1.08 GR
GR value ([17]; 0.003162 µM): 1 GR
GR value ([17]; 0.01 µM): 0.785 GR
GR value ([17]; 0.03162 µM): 0.527 GR
GR value ([17]; 0.1 µM): 0.24 GR
GR value ([17]; 0.3162 µM): 0.0121 GR
GR value ([17]; 1 µM): -0.312 GR
GR value ([17]; 3.162 µM): -0.593 GR
GR value ([17]; 10 µM): -0.688 GR
